From patent US4874862A, “Process for preparing guanine derivatives” (Warner-Lambert Company, priority 1987, dated 1989)

Test system: T-cells
Assay: standard test of selective cytotoxicity for T-cells in the presence of 2'-deoxyguanosine
Format: cell-based
Settings: in the presence of 10 uM of 2'-deoxyguanosine
Protocol: PNP-4 activity was measured radiochemically by measuring the formation of [^14 -C]-hypoxanthine from [^14 -C]-inosine [Biomedicine, 33, 39 (1980)] using human erythrocyte as the enzyme source. The same compounds also were found by a standard test (Science, 214, 1137, (1981)] to be selectively cytotoxic for T-cells in the presence of 2'-deoxyguanosine at a similar concentration range. For example, 8-amino-9-[(4-methylphenyl)methyl]guanine is selectively cytotoxic to T-cells at a concentration of about 3.1 uM in the presence of 10 uM of 2'-deoxyguanosine. Similarly, 8-amino-9-[(4-methoxyphenyl)methyl]guanine is selectively cytotoxic to T-cells at a concentration of about 1.1 uM in the presence of 10 uM of 2'-deoxyguanosine. On the other hand, these compounds were nontoxic to B-cells in the presence or absence of the same amount of 2'-deoxyguanosine. Since T-cells play a central role in immune response, use of the compounds of the invention is contemplated for the immunoregulation of rejection in transplantation and autoimmune disease such as rheumatoid arthritis, systemic lupus erythematosus, inflammatory bowel disease, cancer, juvenile diabetes, myasthenia gravis, multiple sclerosis, and viral diseases. […]

COc1ccc(Cn2c(N)nc3c(=O)[nH]c(N)nc32)cc1 [8-amino-9-[(4-methoxyphenyl)methyl]guanine]
concentration at which selectively cytotoxic to T-cells: about 1.1 uM

Cc1ccc(Cn2c(N)nc3c(=O)[nH]c(N)nc32)cc1 [8-amino-9-[(4-methylphenyl)methyl]guanine]
concentration at which selectively cytotoxic to T-cells: about 3.1 uM
